From article PMC6749236, “Synthesis of Novel 2-(Het)arylpyrrolidine Derivatives and Evaluation of Their Anticancer and Anti-Biofilm Activity” (Molecules, 2019)

Experiments:
M-Hela = assay: Cytotoxicity assay (Cytell Cell Imaging, DAPI/propidium iodide), cancer cell line; assay type: cell-based; conditions: Homo sapiens, M-HeLa, read-out: IC50 Cancer Cell Line M-Hela
Chang liver cell line = assay: Cytotoxicity assay (Cytell Cell Imaging), normal cell line; assay type: cell-based; conditions: Homo sapiens, read-out: IC50 Normal Cell Line Chang Liver
M-Hela cells [1] = assay: Induction of apoptotic effects (annexin V-Alexa Fluor 647, Cytell); assay type: cell-based, human; conditions: 24 hours of treatment, concentration corresponding to the IC50 value (14.7 μM)
Description: Induction of Apoptotic Effects by test compounds. Cell Culture. M-Hela cells at 1 × 10^6 cells/well in a final volume of 2 mL were seeded into six-well plates. After 24 hours of incubation, a solution of the test compound 6g was added to the wells at the concentration studied.
Cytell Cell Imaging System Assay. M-Hela cells were plated into a 24-well plate (Eppendorf) at a concentration of 1 × 10^6 cells/mL, 500 µL of medium per well, and cultured in a CO2 incubator at 37 °C. Twenty-four hours after seeding the cells into wells the compound was added at a preset dilution, 500 µL to each well. […] Evaluation of apoptotic effects was performed with the help of multifunctional system Cytell Cell Imaging, using Cell Viability BioApp and Automated Imaging BioApp applications. The annexin V-Alexa Fluor 647 apoptosis detection kit, DAPI and propidium iodide purchased from Sigma.
Statistical analysis. The experiments were repeated three times. The cytometric results were analyzed by the Cytell Cell Imaging multifunctional system using the Cell Viability BioApp and Apoptosis BioApp application. The data in the tables and graphs are given as the mean ± standard error.

[2] = test system: early apoptosis markers (Caspase-8, Caspase-9) in M-Hela cell lysates; assay: Multiplex analysis of early apoptosis markers (MILLIPLEX MAP 7-plex, Luminex); assay type: cell-based, human; conditions: 24 h, IC50 concentration of 14.7 µM
Description: Multiplex analysis of early apoptosis markers. Next, using the MILLIPLEX® MAP 7-plex Early Phase Apoptosis Signaling kit, seven markers of early apoptosis of JNK, Bad, Bcl-2, Akt, Caspase-9, p53, and Caspase-8 were detected in M-Hela cell lysates. The median fluorescence intensity (MFI) was measured using the Luminex® system. This assay is a quick and convenient alternative to Western blot and immunoprecipitation.
Multiplex analysis of early apoptosis markers. M-Hela cells were incubated for 24 hours with the test substance. Cells were lysed in MILLIPLEX® MAP Lysis buffer containing protease inhibitors. Twenty micrograms of total protein of each lysate diluted in MILLIPLEX® MAP Assay Buffer 2 was analyzed according to the analysis protocol (the lysate was incubated at 4 °C overnight). The mean fluorescence intensity (MFI) was detected using the Luminex® system, MERCK, USA.

M-Hela cells [3] = assay: Mitochondrial membrane potential, JC-10 flow cytometry; assay type: cell-based, human; conditions: IC50 concentration of 14.7 μM
Description: Effects on the mitochondrial membrane potential (Δψm) by lead compounds. In confirmation of data on the course of apoptosis in cells along an external pathway not associated with dysfunctional mitochondria, the ability of the tested compounds to reduce the potential of the mitochondrial membrane (Δψm) in M-Hela culture cells was examined using the example of compound 6g. Studies were performed using flow cytometry methods using JC-10 reagent. In normal cells with a high potential of the mitochondrial membrane, the dye JC-10 forms aggregates (J-aggregate) near the mitochondrial membranes. When the membrane potential due to the stimulation of apoptosis falls, JC-10 is evenly distributed in the cell as a monomer (J-monomer). JC-10 units in normal cells have red fluorescence, and JC-10 monomers are green. The ratio between orange-red and green fluorescence can be used to assess the onset of apoptosis. […] The results obtained indicate that the mechanism of action of the studied compounds is not associated with the induction of apoptosis, which proceeds along the mitochondrial pathway.
Flow Cytometry Assay. Mitochondrial membrane potential. […] After the cells were rinsed three times and suspended in PBS, the JC-10 fluorescence was observed by flow cytometry (Guava easy Cyte 8HT, Guava Technologies Inc., Hayward, CA, USA).

P388 murine leukemia = assay: In vivo anti-tumor activity, i.p. implanted leukemia; design: species or system BDF1 hybrid male mice; conditions: for ILS / MST ± SD / antitumor (anti-leukemic) activity, in words: days 1, 5, 9; for ILS / MST ± SD: P388; for Survival: day 60; for Survivors/Total: survivors on day 60; for antitumor (anti-leukemic) activity, in words: P388, dose range 18–83 mg/kg/day i.p.
Description: Animals. In vivo experiments were performed using the BDF1 hybrid male mice of 22–24 g weight. The experimental animals were caged in a standard vivarium in 12 h light conditions with free access to food and water. All manipulations with the animals were performed in accordance with the solutions of the Commission on Bioethics of the Institute of Problems of Chemical Physics, Russian Academy of Sciences (IPCP RAS).
Anti-tumor activity. The tumors were transplanted intraperitoneally (i.p.) in accordance with a standard procedure inoculum: 10^6 tumor cells in isotonic solution of NaCl, V = 0.2 cm^3 (leukemia P388). Original compounds were injected intraperitoneally as aqueous solution. Doses from 18 to 83 mg/kg/day and the mode of administration on days 1, 5, and 9 after transplantation were used. In each experiment, a single group of tumor-bearing animals not injected with the compounds served as the control group. Each group consisted of six mice. The animals were observed daily for survival for a minimum of 60 days. The efficacy of the therapy against leukemia (defined as increase in lifespan—ILS) was assessed as the percentage of the median survival time (MST) of the treated group (t) to that of the control group (c): ILS(%) = (MSTt/MSTc) × 100.
Statistics. The experiments were carried out in triplicate. The data are presented in the form X ± SD (mean ± standard deviation). The significance of the differences between the groups was assessed using Student’s t-test. Values of p < 0.05 were considered statistically significant. The data were processed statistically using GraphPad Prism.

[4] = Water solubility (selection for parenteral administration); assay type: physicochemical

## O=C(NC1CCCCC1)N1CCCC1c1ccc(Nc2c([N+](=O)[O-])c(Cl)cc3c2no[n+]3[O-])cc1O (centres unmarked) [6g, 6-Chloro-4-((4-(1-(cyclohexylcarbamoyl)pyrrolidin-2-yl)-3-hydroxyphenyl)amino)-5-nitrobenzo[c][1,2,5]oxadiazole 1-oxide]
M-Hela
  IC50: 14.7 ± 0.9 µM
Chang liver cell line
  IC50: 46 ± 2.7 µM
M-Hela cells [1]
  M-Hela cells in which apoptosis was induced: 25%
[2]
  fluorescence intensity of Caspase-8 versus control: two times higher
  fluorescence intensity of Caspase-9 versus control: at the control level
M-Hela cells [3]
  decrease in mitochondrial membrane potential (Δψm): No decrease
other
  melting point: 170 to 175 °C (dec.)

## Cc1cc(O)c(C2CCCN2C(=O)NCCN(C)C)c(=O)o1.O=C(O)C(F)(F)F (centres unmarked) [7h, 2-(2-(4-Hydroxy-6-methyl-2-oxo-2H-pyran-3-yl)pyrrolidine-1-carboxamido)-N,N-dimethylethan-1-aminium 2,2,2-trifluoroacetate]
M-Hela
  IC50: > 100 µM
Chang liver cell line
  IC50: > 100 µM
P388 murine leukemia; 18 mg/kg/day i.p.
  ILS: 0%
  MST ± SD: 11.0 ± 0.6 days
P388 murine leukemia; 18 mg/kg/day
  Survival: 0%
  Survivors/Total: 0/6
P388 murine leukemia; 26 mg/kg/day i.p.
  ILS: 0%
  MST ± SD: 10.3 ± 0.2 days
P388 murine leukemia; 26 mg/kg/day
  Survival: 0%
  Survivors/Total: 0/6
P388 murine leukemia; 40 mg/kg/day i.p.
  ILS: 0%
  MST ± SD: 10.2 ± 0.2 days
P388 murine leukemia; 40 mg/kg/day
  Survival: 0%
  Survivors/Total: 0/6
P388 murine leukemia; 55 mg/kg/day i.p.
  ILS: 0%
  MST ± SD: 10.7 ± 0.2 days
P388 murine leukemia; 55 mg/kg/day
  Survival: 0%
  Survivors/Total: 0/6
P388 murine leukemia; 83 mg/kg/day i.p.
  ILS: 0%
  MST ± SD: 10.3 ± 0.2 days
P388 murine leukemia; 83 mg/kg/day
  Survival: 0%
  Survivors/Total: 0/6
P388 murine leukemia
  antitumor (anti-leukemic) activity, in words: did not show antitumor properties
[4]
  solubility in water, in words: water-soluble

## CN(C)CCNC(=O)N1CCCC1c1ccc(Nc2c([N+](=O)[O-])c(Cl)cc3c2no[n+]3[O-])cc1O.O=C(O)C(F)(F)F (centres unmarked) [6h, 6-Chloro-4-((4-(1-((2-(dimethylammonio)ethyl)carbamoyl)pyrrolidin-2-yl)-3-hydroxyphenyl)amino)-5-nitrobenzo[c][1,2,5]oxadiazole 1-oxide 2,2,2-trifluoroacetate]
M-Hela
  IC50: 100 ± 8.6 µM
Chang liver cell line
  IC50: > 100 µM
P388 murine leukemia; 18 mg/kg/day i.p.
  ILS: 37%
  MST ± SD: 13.8 ± 0.6 days
P388 murine leukemia; 18 mg/kg/day
  Survival: 0%
  Survivors/Total: 0/6
P388 murine leukemia; 26 mg/kg/day i.p.
  ILS: 34%
  MST ± SD: 13.5 ± 0.5 days
P388 murine leukemia; 26 mg/kg/day
  Survival: 0%
  Survivors/Total: 0/6
P388 murine leukemia; 40 mg/kg/day i.p.
  ILS: 27%
  MST ± SD: 12.8 ± 0.7 days
P388 murine leukemia; 40 mg/kg/day
  Survival: 0%
  Survivors/Total: 0/6
P388 murine leukemia; 55 mg/kg/day i.p.
  ILS: 39%
P388 murine leukemia; 55 mg/kg/day
  Survival: 0%
  Survivors/Total: 0/6
P388 murine leukemia; 83 mg/kg/day i.p.
  ILS: 11%
  MST ± SD: 11.2 ± 1.6 days
P388 murine leukemia; 83 mg/kg/day
  Survival: 0%
  Survivors/Total: 0/6
P388 murine leukemia
  antitumor (anti-leukemic) activity, in words: did not show antitumor properties
[4]
  solubility in water, in words: water-soluble

## O=C(Nc1ccccc1)N1CCCC1c1cc2c(cc1O)OCO2 (centres unmarked) [5b, 2-(6-Hydroxybenzo[d][1,3]dioxol-5-yl)-N-phenylpyrrolidine-1-carboxamide]
M-Hela
  IC50: > 100 µM
Chang liver cell line
  IC50: > 100 µM
P388 murine leukemia; 18 mg/kg/day i.p.
  ILS: 177%
  MST ± SD: 27.7 ± 10.3 days
P388 murine leukemia; 18 mg/kg/day
  Survival: 33%
P388 murine leukemia; 26 mg/kg/day i.p.
  ILS: 165%
  MST ± SD: 26.5 ± 10.6 days
P388 murine leukemia; 26 mg/kg/day
  Survival: 33%
P388 murine leukemia; 40 mg/kg/day i.p.
  ILS: 160%
  MST ± SD: 26.0 ± 10.8 days
P388 murine leukemia; 40 mg/kg/day
  Survival: 33%
P388 murine leukemia; 55 mg/kg/day i.p.
  ILS: 80%
  MST ± SD: 18.0 ± 8.4 days
P388 murine leukemia; 55 mg/kg/day
  Survival: 17%
P388 murine leukemia; 83 mg/kg/day i.p.
  ILS: 0%
  MST ± SD: 9.7 ± 0.2 days
P388 murine leukemia; 83 mg/kg/day
  Survival: 0%
  Survivors/Total: 0/6
P388 murine leukemia
  antitumor (anti-leukemic) activity, in words: pronounced anti-leukemic activity
[4]
  solubility in water, in words: water-soluble
